Experimental data as given in US5750562A (priority 1995, dated 1998).

Tests used:
HT-29 (human colon) = experiment: Cytotoxicity, HT-29 (human colon); format: cell-based; conditions: exposition time 72 h, RPMI 1640 + 20 mM HEPES + 2 mM L-glutamine
Protocol: (§1) IC50 s of compounds 10, 11and paclitaxel on 6 human
(§2) Standard conditions: basal medium RPMI 1640 + 20 mM HEPES + 2 mM

L1210 (murine leukemia) = experiment: Cytotoxicity, L1210 (murine leukemia); format: cell-based; conditions: Mus musculus, exposition time 48 h, RPMI 1640 + 20 mM HEPES + 2 mM L-glutamine
A121 (human ovarian) = experiment: Cytotoxicity, A121 (human ovarian); format: cell-based; conditions: exposition time 72 h, RPMI 1640 + 20 mM HEPES + 2 mM L-glutamine
Protocol: as §1, §2

A549 (human NSCLC) = experiment: Cytotoxicity, A549 (human NSCLC); format: cell-based; conditions: exposition time 72 h, RPMI 1640 + 20 mM HEPES + 2 mM L-glutamine
Protocol: as §1, §2

Cardiotoxic activity = conditions: in words, compared with taxol and its known derivatives
MCF7-ADR (resistant) = experiment: cells; format: cell-based; conditions: Homo sapiens, NCI/ADR-RES, 72 h
human tumours = conditions: background art, cited from earlier work
MCF7 (human breast) = experiment: Cytotoxicity, MCF7 (human breast); format: cell-based; conditions: exposition time 72 h, RPMI 1640 + 20 mM HEPES + 2 mM L-glutamine
Protocol: as §1, §2

tumours = experiment: Anti-tumoral activity (general statement); conditions: in words, among the compounds of formula 1

SMILES	IC50 (HT-29 (human colon))	IC50 (L1210 (murine leukemia))	IC50 (A121 (human ovarian))	IC50 (A549 (human NSCLC))	cardiotoxic activity (Cardiotoxic activity)	IC50 (MCF7-ADR (resistant))	anticancerogenic activity (human tumours; different forms of human tumours)	resistance induction (human tumours)	side-effects in clinical use (human tumours)	IC50 (MCF7 (human breast))	activity (tumours)
CC(=O)O[C@H]1C(=O)[C@@]2(C)[C@H]([C@H](OC(=O)c3ccccc3)[C@]3(O)C[C@H](OC(=O)[C@H](O)[C@@H](NC(=O)c4ccccc4)c4ccccc4)C(C)=C1C3(C)C)[C@]1(OC(C)=O)CO[C@@H]1C[C@@H]2O [Paclitaxel, reference compound]	6 ± 0.6 nM	7 ± 3 nM	3.7 ± 0.3 nM	5.4 ± 0.5 nM	contrary to taxol	395 ± 8.7 nM	anticancerogenic activity on different forms of human tumours	induces resistance quickly	serious side-effects	4.3 ± 0.1 nM	
CC(=O)O[C@@]12CO[C@@H]1C[C@H](O)[C@@]1(C)C(=O)C(=O)C3=C(C)[C@@H](OC(=O)[C@H](O)[C@H](CC(C)C)NC(=O)OC(C)(C)C)C[C@@](O)([C@@H](OC(=O)c4ccccc4)[C@H]21)C3(C)C [Compound 10, 13-[(2R,3S)-3-ter-butoxycarbonylamino-2-hydroxy3-isobutyl-propanoyl]-10-deacetyl-10-dehydro-baccatine III]	0.4 ± 0.1 nM	0.6 ± 0.1 nM	0.8 ± 0.3 nM	1.9 ± 0.3 nM						1.2 ± 0.2 nM	particularly active
CC(=O)O[C@@]12CO[C@@H]1C[C@H](O)[C@@]1(C)C(=O)C(=O)C3=C(C)[C@@H](OC(=O)[C@H](O)[C@H](CC(C)C)NC(=O)OC(C)(C)C)[C@@H]4OC(=O)O[C@]4([C@@H](OC(=O)c4ccccc4)[C@H]21)C3(C)C [Compound 11, 13=[(2R,3S)-3-ter-butoxycarbonylamino-2-hydroxy-3-isobutyl-propanoyl]-10-dehydro-10-deacetyl-14β-hydroxy-baccatine III 1,14-carbonate]	0.6 ± 0.4 nM	2 ± 0.1 nM	1.6 ± 0.2 nM	2.1 ± 0.3 nM						0.8 ± 0.2 nM	particularly active
CCCCCC(=O)N[C@@H](CC(C)C)[C@@H](O)C(=O)O[C@@H]1C(C)=C2C(=O)C(=O)[C@@]3(C)[C@H]([C@H](OC(=O)c4ccccc4)[C@@]4(OC(=O)O[C@@H]14)C2(C)C)[C@]1(OC(C)=O)CO[C@@H]1C[C@@H]3O [Compound 12, 13-[(2R,3S)-3-caproylamino-2-hydroxy-3-isobutyl-propanoyl]-10-dehydro-10-deacetyl 14β-hydroxy-baccatine III 1,14-carbonate]											particularly active
